Publication PMC9166630, “SAR Probing of KX2-391 Provided Analogues With Juxtaposed Activity Profile Against Major Oncogenic Kinases” (Frontiers in Oncology, 2022)
Where “and” joins values, the source holds several entries; their conditions need not be identical. Identical values can stand only once.

Assays:
Frk = assay: PamChip tyrosine kinase microarray, Frk; format: biochemical, human; conditions: 4e 0.1 µM, HL60 lysate
Procedure: (§1) The changes in kinase activities induced by treatment with 4e were monitored within the HL60 cell lines using PamGene’s (Hertogenbosch, Netherlands) PamChip® peptide microarray profiler, which quantifies the activities of 144 tyrosine kinases (YK) ([29], [30]) (Figure 7). Results are provided as a log fold change (LFC) heatmap and Mean Kinase Statistic. From the LFC it is apparent that compound 4e, at a concentration of 0.1 µM, induced sizable changes to the activity of several kinases within the cell signaling YK profile (Figure 7A).
(§2) An Upstream Kinase tool was used to generate a putative list of kinases responsible for phosphorylating the phospho-sites on the PamChip (Figure 7B) ([31]). It is an interpretation and is highly dependent on the contents of the underlying phosphorylation databases. A Kinase Score was used for ranking kinases based on their significance and specificity in terms of the set of peptides used for the corresponding kinase. Kinase Statistics indicates the overall change of the peptide set that represents the kinase. Kinase statistics value <0 indicates lower kinase activity in the compound spiked lysate and vice versa ([32], [33]). Table 5 lists the 20 most changed kinases within treated HL60 cell lysates by 0.1 μM 4e, ranked according to their Kinase Score.
(§3) The two multiple-kinase tests (PamChip and Phosphokinase Profiler) provided strong evidence of very minor involvement of Src in the cellular activities of 4e. However, the question must be raised about the effect of the 4e on other SRC family kinase (SFK). To address this point, we must highlight that both R&D phosphokinase profiler and PamChip feature Yes, Fgr, Lyn, Lck and Src while Fyn, Hck, Blk and Frk activities are tested in the PamChip only. The signals of SFKs in the R&D Phosphokinase Profiler were too weak to detect in both untreated (control) and 4e-treated HL60 cells. In PamChip assay, most of SFK’s were not ranked in the top 20 affected kinases (Table 5). In addition, their Specificity Score were very low (Table 6) indicating their marginal importance to the cell killing activities of 4e. Fgr kinase which ranked 7th in the list (Table 5) was the only SFK member that seems to be affected by the compound, albeit with low Specificity Score (1.03).
(§4) The compound 4e was spiked into HL60 cell lysate at different concentrations (0.001, 0.01, 0.1, 1, 10 and 50 μM). In addition, DMSO was also spiked in HL60 lysate at low concentration (2% v/v) as control. Samples were profiled on PamGene’s Tyrosine Kinase (PTK) arrays in technical replicates, covering a total of 196 phosphorylation sites. Frozen HL60 cultured cell pellet was sent to PamGene. […] Protein concentration was measured using standard Bradford assay as per PamGene SOPs. […]

Src = assay: PamChip tyrosine kinase microarray, Src; format: biochemical, human; conditions: 4e 0.1 µM, HL60 lysate
Procedure: as §1, §2, §3, §4

JAK1~b = molecular target: T1, JAK1~b (Homo sapiens, UniProt P23458); assay: PamChip tyrosine kinase microarray, JAK1~b; format: biochemical; conditions: 4e 0.1 µM, HL60 lysate
T1 construct: The compound 4e was spiked into HL60 cell lysate at different concentrations; endogenous in cells; host or cells: HL60 cell lysate
Procedure: as §1, §2
(§5) The compound 4e was spiked into HL60 cell lysate at different concentrations (0.001, 0.01, 0.1, 1, 10 and 50 μM). In addition, DMSO was also spiked in HL60 lysate at low concentration (2% v/v) as control. Samples were profiled on PamGene’s Tyrosine Kinase (PTK) arrays in technical replicates, covering a total of 196 phosphorylation sites. Frozen HL60 cultured cell pellet was sent to PamGene. At PamGene, cells were lysed using a lysis buffer and proteases inhibitors cocktail. Protein concentration was measured using standard Bradford assay as per PamGene SOPs. These lysates were further used for generating the PTK activity profiles. For spiking, 4e was received as powder form and dissolved in DMSO at PamGene facility followed by storing at -20°C in small aliquots. PamGene used its in-house bioinformatics toolbox in combination with other methods to generate hypotheses of signaling pathways.

CREB = assay: Human phosphokinase array, CREB; format: cell-based
Source text: (§6) The kinome tree representation (Figure 7C), which was generated by raising the Kinase Score cut-off to >1.2, confirmed that, unlike tirbanibulin and our prototype molecule KX1-136, 4e’s effects were more observable on kinases other than the Src family such as the Eph and TEC families. […] Therefore, we screened compound 4e using the Human Phospho-Kinase Array® kit from R&D systems (Minneapolis, MN, USA). In this system, 35 phosphorylated YK and serine-threonine kinase (STK) enzymes in the untreated (control) and treated (test) HL60 cell lysates were captured on nitrocellulose membrane, pre-spotted with phosphokinase-specific capture antibodies, and then visualized by detection antibody cocktails (Figure 8). The difference in the spot intensity between untreated (control) and treated cells is proportional to change in the amount of the phosphorylated protein induced by 4e.
(§7) The phosphorylation profile of 48 kinases was performed using the Proteome Profiler Human Phospho-Kinase Antibody Array Kit by R&D Systems (Minneapolis, MN, USA) according to the protocol. Briefly, the total cellular protein was extracted using the Lysis buffer and was quantified using Bio-Rad DC Protein Assay kit (Hercules, CA, USA). Nitrocellulose membrane set (A&B), pre-spotted with kinase-specific capture antibodies, were first blocked with Array Buffer-1 at RT for 30 min on a rocking platform shaker. Approximately 600 µg of protein concentrate was diluted in the buffer provided and was added onto the membrane set, and the membranes were incubated overnight at 4°C in an 8-well plate. Subsequently, membranes were washed with Wash Buffer and incubated with appropriate Detection Antibody cocktails for 2 h at RT. Streptavadin-HRP (1:2000) was added onto membranes and incubated for 30 min at RT. Membranes were washed, and Chemiluminescent Detection Reagents 1&2 were applied in equal volumes for detection. The signals were detected on C-DiGit®Blot Scanner (LI-COR, Odyssey Imaging Systems, Lincoln, Nebraska, USA) using Image Studio 5.0 software.

HL60 cells = assay: Cell cycle analysis (Hoechst 33342, flow cytometry); format: cell-based, human; conditions: HL60, 5 µM, 48 h
Procedure: The effect of 4e on the distribution of cells in different phases of the cell cycle was determined by flow cytometry using Hoescht 33342 staining in HL60 cells.
HL60 cells (3.5 x 10^5) were seeded in a 6-well plate, were treated with appropriate concentrations of the test compound after attachment, and were incubated at 37°C for 48 h. The treated cells were then collected and washed twice with ice-cold PBS (1X). The washed cells were fixed using 80% ice cold ethanol and stored at -20°C overnight. Fixed cells were washed twice with PBS before staining with 10 µg of Hoechst 33342 (10 µg/mL; Thermo Fisher Scientific, Inc.) and incubated in the dark for 30 min on ice. Cells were washed again with PBS wash and a minimum total of 20,000 events were collected and analyzed using a BD FACSAria III flow cytometer (BD Biosciences, USA). Flowlogic software version 7.0/7.2.1 (Inivai Technologies Pvt Ltd, Victoria, Australia) was used to obtain the percentage distribution of cells in G1, S, and G2/M phases in the singlet-gated population. For validation purpose, we included KX2-391 as a positive reference in this assay.

Srm = molecular target: T2, Srm (Homo sapiens, UniProt Q9H3Y6); assay: PamChip tyrosine kinase microarray, Srm; format: biochemical; conditions: 4e 0.1 µM, HL60 lysate
T2 construct: endogenous in cells; host or cells: HL60 lysate
Procedure: as §1, §2, §5

C-Jun = assay: Human phosphokinase array, c-Jun; format: cell-based
Source text: as §6, §7

T1 sequence (P23458 whole entry): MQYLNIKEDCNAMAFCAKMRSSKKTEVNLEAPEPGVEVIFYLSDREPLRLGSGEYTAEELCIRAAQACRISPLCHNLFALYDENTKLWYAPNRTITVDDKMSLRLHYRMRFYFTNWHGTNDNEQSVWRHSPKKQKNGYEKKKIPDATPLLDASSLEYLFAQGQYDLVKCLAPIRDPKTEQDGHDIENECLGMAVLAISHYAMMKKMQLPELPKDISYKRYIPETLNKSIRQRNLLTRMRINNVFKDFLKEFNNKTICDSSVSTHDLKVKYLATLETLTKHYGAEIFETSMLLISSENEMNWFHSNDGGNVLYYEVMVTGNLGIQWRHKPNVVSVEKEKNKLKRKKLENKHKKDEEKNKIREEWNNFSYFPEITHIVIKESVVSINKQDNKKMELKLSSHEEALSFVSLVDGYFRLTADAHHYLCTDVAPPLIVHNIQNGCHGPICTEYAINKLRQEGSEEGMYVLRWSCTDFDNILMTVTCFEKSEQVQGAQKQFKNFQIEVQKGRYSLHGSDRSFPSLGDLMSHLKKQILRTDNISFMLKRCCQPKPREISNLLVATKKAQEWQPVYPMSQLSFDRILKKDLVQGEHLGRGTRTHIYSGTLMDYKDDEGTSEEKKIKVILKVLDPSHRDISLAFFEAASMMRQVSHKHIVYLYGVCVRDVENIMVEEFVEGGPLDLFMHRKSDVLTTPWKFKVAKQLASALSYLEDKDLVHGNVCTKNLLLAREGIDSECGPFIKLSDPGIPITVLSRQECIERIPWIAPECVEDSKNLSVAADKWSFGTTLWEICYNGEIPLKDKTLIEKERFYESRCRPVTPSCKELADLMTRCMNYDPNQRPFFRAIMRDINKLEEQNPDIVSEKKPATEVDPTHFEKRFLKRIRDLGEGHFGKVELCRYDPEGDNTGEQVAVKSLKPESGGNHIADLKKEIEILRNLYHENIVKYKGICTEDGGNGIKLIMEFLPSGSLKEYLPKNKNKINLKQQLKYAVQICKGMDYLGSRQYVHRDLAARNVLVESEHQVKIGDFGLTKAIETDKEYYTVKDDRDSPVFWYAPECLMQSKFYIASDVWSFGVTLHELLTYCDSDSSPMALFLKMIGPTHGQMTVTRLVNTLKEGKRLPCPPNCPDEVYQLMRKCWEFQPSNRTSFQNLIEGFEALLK
T2 sequence (Q9H3Y6 whole entry): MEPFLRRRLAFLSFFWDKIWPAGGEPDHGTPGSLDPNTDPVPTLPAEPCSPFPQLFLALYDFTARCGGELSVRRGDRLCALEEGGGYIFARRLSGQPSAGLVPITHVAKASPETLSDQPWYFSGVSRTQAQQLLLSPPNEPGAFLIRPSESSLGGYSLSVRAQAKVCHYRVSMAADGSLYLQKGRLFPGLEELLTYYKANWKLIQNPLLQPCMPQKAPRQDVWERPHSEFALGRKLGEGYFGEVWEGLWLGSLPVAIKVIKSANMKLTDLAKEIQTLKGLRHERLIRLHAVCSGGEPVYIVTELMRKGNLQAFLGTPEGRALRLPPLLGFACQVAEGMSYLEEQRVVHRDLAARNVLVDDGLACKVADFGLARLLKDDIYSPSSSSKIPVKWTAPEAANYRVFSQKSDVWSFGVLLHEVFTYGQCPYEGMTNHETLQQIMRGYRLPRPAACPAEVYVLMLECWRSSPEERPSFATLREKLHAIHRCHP

O=C(Cc1ccc(NC(=O)c2cccc(Cl)c2)cc1)NCc1ccccc1 [Compound 4e, N-(4-(2-(benzylamino)-2-oxoethyl)phenyl)-3-chlorobenzamide]
Mean Final Score (Frk): 1.6587 | Mean Kinase Statistic (Frk): -0.5116 | Mean Significance Score (Frk): 1.1484 | Mean Specificity Score (Frk): 0.5102 | Mean Final Score (Src): 0.7589 | Mean Kinase Statistic (Src): -0.3527 | Mean Significance Score (Src): 0.7353 | Mean Specificity Score (Src): 0.0236 | Mean Final Score (JAK1~b): 1.3907 | Mean Kinase Statistic (JAK1~b): -0.5828 | Mean Significance Score (JAK1~b): 0.8736 | Mean Specificity Score (JAK1~b): 0.5171 | phosphokinase signal after 4e exposure, CREB (CREB; HL60 cell lysate, treated): 682.43 | Change in Signal, CREB (CREB; treated vs untreated HL60): 42.08 | % Change, CREB (CREB; treated vs untreated HL60, Ser133): 6.57% and ~ 6% | Apoptosis (cell cycle profile) (HL60 cells): 14.66% | G2M population (HL60 cells): 24.51% | Mean Final Score (Srm): 2.2692 | Mean Kinase Statistic (Srm): -0.5863 | Mean Significance Score (Srm): 1.1518 | Mean Specificity Score (Srm): 1.1174 | phosphokinase signal after 4e exposure, C-Jun (C-Jun; HL60 cell lysate, treated): 1811.31 | Change in Signal, C-Jun (C-Jun; treated vs untreated HL60): 829.81 | % Change, C-Jun (C-Jun; treated vs untreated HL60, Ser63 phosphorylation increase): 84% and 84.55%
